Source: publication PMC10142505, “Synthesis, Evaluation of Enzyme Inhibition and Redox Properties of Potential Dual COX-2 and 5-LOX Inhibitors” (Pharmaceuticals, 2023)
Marks after values point to notes of the source that are not given here.

System: human serum pool
Assay: Redox activity (oxy score from TOS, PAB, TAS, SHG) in vitro in human serum pool
Conditions: 37 °C, median (interquartile range); for Oxy score (OS), 2 h incubation, TBH added / Oxy score (OS), 24 h incubation, TBH added: with TBH added; for Oxy score (OS), 2 h incubation / Oxy score (OS), 24 h incubation: without TBH; for Oxy score (OS), 2 h incubation: average of five concentrations
Description: The remains of the serum samples were taken from healthy subjects after biochemical analysis; these subjects participated in regular medical examinations at the Military Medical Academy in Belgrade and consented to the formation of a serum pool. Neither the patients’ data nor their identities were used. Serum pool samples were prepared and aliquoted (450 µL portions) according to the routine procedure for in-house controle samples and preserved at the -80 °C until analysis. Five serial dilutions of the tested compounds (concentrations: 1000 µM, 500 µM, 250 µM, 125 µM and 62.5 µM) were added alone (50 µL) or in combination (25 µL) with oxidant TBH (25 µM) into 450 µL of serum. The compounds were dissolved in dimethyl sulfoxide (DMSO) for stock solution (1000 µM), while a PBS buffer (phosphate buffered saline) pH = 7.4 was used for serial dilutions (500 µM, 250 µM, 125 µM and 62.5 µM). Deionized water was used as a blank. DMSO and buffer pH = 7.4 were used as a control, while trolox solution (2 mmol/L) was used as a standard. All samples were incubated in duplicate for 2 h and 24 h at 37 °C.
Oxidative stress parameters (total antioxidative status (TAS), total oxidative status (TOS), total concentration of sulfhydryl group (SHG) and prooxidative–antioxidative balance (PAB)) were determined in order to calculate prooxidative score, antioxidative score and oxy score (OS). These parameters were determined in serum.
Total antioxidative status (TAS) was measured using Erel’s method, which was further optimized by Kotur-Stevuljevic et al. in 2015 [34]. ABTS (2,2-azino-bis(3-ethyl-benzthiazoline-6-sulfonic acid) is oxidized to a green-colored ABTS^+ cation by hydrogen peroxide in the acetate buffer (pH = 3.6). This stable cation is chromogen, and the presence of antioxidants in the samples causes its discoloration proportional to their concentrations. The absorbance was measured using a SPECTROstar Nano Microplate Reader (BMG Labtech, Ortenberg, Germany). The reaction was calibrated with Trolox and the TAS values are expressed as mmol trolox equivalent/L.
Total oxidative status (TOS) was measured using Erel’s method. Here, a ferrous ion-o-dianisidine complex is oxidized to ferric ion by the oxidants present in the sample. The ferric ion forms a colored complex with xylenol orange in an acidic environment and in the presence of glycerol. The intensity of the color of the formed complex is proportional to the total contents of oxidants in the sample. The absorbance was measured at 560 nm using a SPECTROstar Nano Microplate Reader (BMG Labtech, Ortenberg, Germany). The reaction was calibrated with hydrogen peroxide and the TOS values are expressed as µmol H2O2 equivalent/L.
Prooxidant–antioxidant balance (PAB) was measured according to procedures in the literature. Here, hydrogen peroxide is determined in the presence of antioxidants in the sample. Both of them (hydrogen peroxide and antioxidants (including uric acid)) react with chromogen TMB (3,3′,5,5′-tetramethylbenzidine) simultaneously. The hydrogen peroxide and chromogen reaction is enzymatically catalyzed with peroxidase, while the antioxidants–chromogen reaction is non-enzymatic. The intense blue color, produced as a result of the reaction between hydrogen peroxide and TMB, is decolorized by the reaction of the antioxidant with the TMB. The resulting color (result of two competitive reactions) is proportional to the ratio of antioxidants to prooxidants. The absorbance was measured at 450 nm. Different ratios of hydrogen peroxide and uric acid solutions were used to make a standard curve. The PAB results are expressed in hydrogen peroxide concentrations.
Total Sulfydryl Groups Content (SHG) was measured using a modified version of Ellman’s method. This method is based on the reaction between DTNB ([…]) and aliphatic thiol compounds in an alkaline environment (pH = 9.0). […]

COc1ccc2c(c1)c(CNC(=O)NO)c(C)n2C(=O)c1ccc(Cl)cc1 [Compound 1, N’-hydroxy-N-[(1-(4-chlorobenzoyl)-5-methoxy-2-methyl-3-indolyl)methyl]urea]
Oxy score (OS), 2 h incubation, TBH added: 6.44 (5.51–7.02)
Oxy score (OS), 2 h incubation: −0.43 (−1.27–3.13)
Oxy score (OS), 24 h incubation, TBH added: 5.46 (4.96–6.20)
Oxy score (OS), 24 h incubation: 0.71 (0.51–0.80)

CC(NC(=O)NO)c1ccc(-c2ccccc2)c(F)c1 (centres unmarked) [Compound 2]
Oxy score (OS), 2 h incubation, TBH added: 5.20 (3.70–5.42)
Oxy score (OS), 2 h incubation: 3.28 (−0.68–16.66)
Oxy score (OS), 24 h incubation, TBH added: 6.79 (4.37–7.90)
Oxy score (OS), 24 h incubation: 0.33 (−0.07–0.85)

O=C(NO)NCc1ccccc1Nc1c(Cl)cccc1Cl [Compound 3, N’-hydroxy-N-[(2-(2,6-dichloroanilino)phenyl)methyl]urea]
Oxy score (OS), 2 h incubation, TBH added: 5.81 (4.64–7.25)
Oxy score (OS), 2 h incubation: 1.58 (−0.38–3.45)
Oxy score (OS), 24 h incubation, TBH added: 1.93 (0.65–5.02) ^#
Oxy score (OS), 24 h incubation: 1.31 (−0.31–1.75)

COC(=O)C(Cc1c[nH]cn1)NC(=O)c1cc(C(C)(C)C)c(O)c(C(C)(C)C)c1 (centres unmarked) [Compound 4, 2-(3,5-di-tert-butyl-4-hydroxy-benzoylamino)-3-(1H-imidazol-4-yl)-propionic acid methyl ester]
Oxy score (OS), 2 h incubation, TBH added: 3.68 (3.36–8.40)
Oxy score (OS), 2 h incubation: 0.24 (−0.24–0.89)
Oxy score (OS), 24 h incubation, TBH added: 7.86 (7.20–10.68)
Oxy score (OS), 24 h incubation: 3.00 (1.99–3.93) **

COC(=O)CNC(=O)c1cc(C(C)(C)C)c(O)c(C(C)(C)C)c1 [Compound 5, (3,5-di-tert-butyl-4-hydroxy-benzoylamino)-acetic acid methyl ester]
Oxy score (OS), 2 h incubation, TBH added: 2.83 (2.55–3.39)
Oxy score (OS), 2 h incubation: 0.29 (−0.30–1.23)
Oxy score (OS), 24 h incubation, TBH added: 5.64 (5.07–6.47)
Oxy score (OS), 24 h incubation: 2.14 (1.37–2.62) **

C=CCNC(=O)c1cc(C(C)(C)C)c(O)c(C(C)(C)C)c1 [Compound 6, N-allyl-3,5-di-tert-butyl-4-hydroxy-benzamide]
Oxy score (OS), 2 h incubation, TBH added: 3.77 (3.37–4.20)
Oxy score (OS), 2 h incubation: 0.52 (0.08–1.52)
Oxy score (OS), 24 h incubation, TBH added: 6.07 (4.34–7.02)
Oxy score (OS), 24 h incubation: 3.09 (2.50–3.67)

C#CCNC(=O)c1cc(C(C)(C)C)c(O)c(C(C)(C)C)c1 [Compound 7, 3,5-di-tert-butyl-4-hydroxy-N-prop-2-ynyl-benzamide]
Oxy score (OS), 2 h incubation, TBH added: 6.62 (6.42–6.98)
Oxy score (OS), 2 h incubation: 3.12 (2.21–3.47)
Oxy score (OS), 24 h incubation, TBH added: 10.54 (4.45–27.42)
Oxy score (OS), 24 h incubation: 2.55 (2.18–2.92)

CCOc1ccccc1NC(=O)N(C)C [Compound 8, 3-(2-ethoxy-phenyl)-1,1-dimethyl-urea]
Oxy score (OS), 2 h incubation, TBH added: 8.43 (5.76–13.81)
Oxy score (OS), 2 h incubation: 0.03 (−0.96–1.46)
Oxy score (OS), 24 h incubation, TBH added: −0.55 (−0.67–1.48) ^##
Oxy score (OS), 24 h incubation: −0.52 (−1.24–3.03)

CN(C)C(=O)Nc1ccccc1C(=O)O [Compound 9, 2-(3,3-dimethyl-ureido)-benzoic acid]
Oxy score (OS), 2 h incubation, TBH added: 5.97 (4.06–8.25)
Oxy score (OS), 2 h incubation: 0.09 (−0.79–1.80)
Oxy score (OS), 24 h incubation, TBH added: −0.19 (−0.68–1.56)
Oxy score (OS), 24 h incubation: −0.18 (−1.55–2.91)

CCOc1ccccc1NC(=O)Nc1ccc([N+](=O)[O-])cc1 [Compound 10, 1-(2-ethoxy-phenyl)-3-(4-nitro-phenyl)-urea]
Oxy score (OS), 2 h incubation, TBH added: 6.34 (5.07–22.02)
Oxy score (OS), 24 h incubation, TBH added: 0.97 (−0.04–4.08)
Oxy score (OS), 24 h incubation: −0.97 (−1.53–3.85)

CC(=O)N(O)C(C)c1ccc(CC(C)C)cc1 (centres unmarked) [Compound 11]
Oxy score (OS), 2 h incubation, TBH added: 5.15 (4.76–6.74)
Oxy score (OS), 2 h incubation: −0.22 (−0.65–0.82)
Oxy score (OS), 24 h incubation, TBH added: 3.18 (2.92–3.60) ^##
Oxy score (OS), 24 h incubation: 1.83 (1.49–2.18) *

COc1ccc2cc(C(C)N(O)C(C)=O)ccc2c1 (centres unmarked) [Compound 12, N-hydroxy-N-[1-(6-methoxy-naphthalen-2-yl)-ethyl]-acetamide]
Oxy score (OS), 2 h incubation, TBH added: 4.79 (4.25–5.43)
Oxy score (OS), 2 h incubation: 0.24 (−0.06–0.58)
Oxy score (OS), 24 h incubation, TBH added: 3.97 (3.44–6.33)
Oxy score (OS), 24 h incubation: 2.49 (2.03–2.66) **

CC(C)(C)c1cc(C=C2SC(=S)N(N)C2=O)cc(C(C)(C)C)c1O [Compound 13, 3-amino-5-(3,5-di-tert-butyl-4-hydroxy-benzylidene)-2-thioxo-thiazolidin-4-one]
Oxy score (OS), 2 h incubation, TBH added: 5.89 (5.63–6.14)
Oxy score (OS), 2 h incubation: 0.75 (0.56–0.94)
Oxy score (OS), 24 h incubation: 0.64 (0.19–1.01)
